# Test results taken from patent US20110098325A1, “PYRIDINE BENZAMIDES AND PYRAZINE BENZAMIDES USED AS PKD INHIBITORS” (CANCER RESEARCH TECHNOLOGY LIMITED, priority 2006, published 2011).
# Target: T1, Murine PKD1 kinase domain (Mus musculus, UniProt Q62101)
# T1 construct: hexahistidine (pFastBac HTb leader) (N); made in house; host or cells: Sf9 insect cells, baculovirus (Bac-to-Bac HT, pFastBac HTb)
# T1 sequence (Q62101 with tags, fused parts or gaps R683W): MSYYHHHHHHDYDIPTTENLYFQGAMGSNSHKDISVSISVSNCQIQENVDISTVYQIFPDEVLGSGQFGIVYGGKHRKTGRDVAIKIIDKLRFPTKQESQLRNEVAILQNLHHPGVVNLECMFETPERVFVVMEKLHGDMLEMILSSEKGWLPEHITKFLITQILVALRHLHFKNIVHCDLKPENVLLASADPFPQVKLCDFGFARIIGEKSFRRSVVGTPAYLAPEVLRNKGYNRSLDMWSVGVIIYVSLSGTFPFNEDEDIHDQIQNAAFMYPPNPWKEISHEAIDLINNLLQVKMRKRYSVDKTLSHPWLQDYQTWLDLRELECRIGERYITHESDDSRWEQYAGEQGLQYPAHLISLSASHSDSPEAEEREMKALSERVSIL
# Test: PKD1 (Murine Kinase Domain) Enzyme Activity Assay (IMAP fluorescence polarisation)
# Type: biochemical
# Settings: 10 μM ATP, 60 minutes, room temperature
row,IC50,Structure (SMILES)
1,< 1 µM,"COc1cccc(-c2cc(-c3cccc(C(=O)N(C)CCN(C)C)c3)cnc2N)c1 [Y-075, 3-[6-Amino-5-(3-methoxy-phenyl)-pyridin-3-yl]-(2-dimethylamino-ethyl)-N-methyl-benzamide]"
2,< 1 µM,"CC(=O)Nc1cccc(-c2cc(-c3cccc(C(=O)NCCN(C)C)c3)cnc2N)c1 [Y-076, 3-[5-(3-Acetylamino-phenyl)-6-amino-pyridin-3-yl]-N-(2-dimethylamino-ethyl)-benzamide]"
3,< 1 µM,"CN(C)CCNC(=O)c1cccc(-c2cnc(N)c(-c3cccc(O)c3)c2)c1 [Y-077, 3-[6-Amino-5-(3-hydroxy-phenyl)-pyridin-3-yl]-N-(2-dimethylamino-ethyl)-benzamide]"
4,< 1 µM,"CN(C)CCNC(=O)c1cccc(-c2cnc(N)c(-c3cncc4ccccc34)c2)c1 [Y-078, 3-(6-Amino-5-isoquinolin-4-yl-pyridin-3-yl)-N-(2-dimethylamino-ethyl)-benzamide]"
5,< 1 µM,"CN(C)CCNC(=O)c1cccc(-c2cnc(N)c(-c3ccc(O)cc3)c2)c1 [Y-079, 3-[6-Amino-5-(4-hydroxy-phenyl)-pyridin-3-yl]-N-(2-dimethylamino-ethyl)-benzamide]"
6,< 1 µM,"CN(C)CCNC(=O)c1cccc(-c2cnc(N)c(-c3cccc(CC#N)c3)c2)c1 [Y-080, 3-[6-Amino-5-(3-cyanomethyl-phenyl)-pyridin-3-yl]-N-(2-dimethylamino-ethyl)-benzamide]"
7,< 1 µM,"COc1cc(OC)cc(-c2cc(-c3cccc(C(=O)NCCN(C)C)c3)cnc2N)c1 [Y-081, 3-[6-Amino-5-(3,5-dimethoxy-phenyl)-pyridin-3-yl]-N-(2-dimethylamino-ethyl)-benzamide]"
8,< 1 µM,"CN(C)CCNC(=O)c1cccc(-c2cnc(N)c(-c3ccc4cc(O)ccc4c3)c2)c1 [Y-082, 3-[6-Amino-5-(6-hydroxy-naphthalen-2-yl)-pyridin-3-yl]-N-(2-dimethylamino-ethyl)-benzamide]"
9,< 1 µM,"COc1cccc(-c2cc(-c3cccc(C(=O)NCCN(C)C)c3)cnc2N)n1 [Y-083, 3-(2′-Amino-6-methoxy-[2,3′]bipyridinyl-5′-yl)-N-(2-dimethylamino-ethyl)-benzamide]"
10,< 1 µM,"CN(C)CCNC(=O)c1cccc(-c2cnc(N)c(-c3ccncc3)c2)c1 [Y-084, 3-(2-Amino-[3,4′]bipyridinyl-5-yl)-N-(2-dimethylamino-ethyl)-benzamide]"
11,< 1 µM,"CN(C)CCNC(=O)c1cccc(-c2cnc(N)c(-c3ccnc(Cl)c3)c2)c1 [Y-085, 3-(2-Amino-2′-chloro-[3,4′]bipyridinyl-5-yl)-N-(2-dimethylamino-ethyl)-benzamide]"
12,< 1 µM,"CSc1nccc(-c2cc(-c3cccc(C(=O)NCCN(C)C)c3)cnc2N)n1 [Y-086, 3-[6-Amino-5-(2-methylsulfanyl-pyrimidin-4-yl)-pyridin-3-yl]-N-(2-dimethylamino-ethyl)-benzamide]"
13,< 1 µM,"COc1ccc2cc(-c3cc(-c4cccc(C(=O)NCCN(C)C)c4)cnc3N)ccc2c1 [Y-087, 3-[6-Amino-5-(6-methoxy-naphthalen-2-yl)-pyridin-3-yl]-N-(2-dimethylamino-ethyl)-benzamide]"
14,< 1 µM,"COc1cc(-c2cc(-c3cccc(C(=O)NCCN(C)C)c3)cnc2N)cc(OC)c1OC [Y-088, 3-[6-Amino-5-(3,4,5-trimethoxy-phenyl)-pyridin-3-yl]-N-(2-dimethylamino-ethyl)-benzamide]"
15,< 1 µM,"COc1cncc(-c2cc(-c3cccc(C(=O)NCCN(C)C)c3)cnc2N)c1 [Y-089, 3-(2-Amino-5′-methoxy-[3,3′]bipyridinyl-5-yl)-N-(2-dimethylamino-ethyl)-benzamide]"
16,< 1 µM,"CN(C)CCNC(=O)c1cccc(-c2cnc(N)c(-c3cnc4ccccc4c3)c2)c1 [Y-090, 3-(6-Amino-5-quinolin-3-yl-pyridin-3-yl)-N-(2-dimethylamino-ethyl)-benzamide]"
17,< 1 µM,"CN(C)CCNC(=O)c1cccc(-c2cnc(N)c(-c3ccc4nccnc4c3)c2)c1 [Y-091, 3-(6-Amino-5-quinoxalin-6-yl-pyridin-3-yl)-N-(2-dimethylamino-ethyl)-benzamide]"
18,< 1 µM,"COc1cccc(-c2cc(-c3cccc(C(=O)NC(C)CN(C)C)c3)cnc2N)c1 (stereo not drawn) [Y-092, 3-[6-Amino-5-(3-methoxy-phenyl)-pyridin-3-yl]-N-(2-dimethylamino-1-methyl-ethyl)-benzamide]"
19,< 1 µM,"COc1cc(-c2cc(-c3cccc(C(=O)NCCN(C)C)c3)cnc2N)ncn1 [Y-093, 3-[6-Amino-5-(6-methoxy-pyrimidin-4-yl)-pyridin-3-yl]-N-(2-dimethylamino-ethyl)-benzamide]"
20,< 1 µM,"CN(C)CCNC(=O)c1cccc(-c2cnc(N)c(-c3ccc4[nH]ncc4c3)c2)c1 [Y-094, 3-[6-Amino-5-(1H-indazol-5-yl)-pyridin-3-yl]-N-(2-dimethylamino-ethyl)-benzamide]"
21,< 1 µM,"CCN(CC)CCNC(=O)c1cccc(-c2cnc(N)c(-c3cccc(OC)c3)c2)c1 [Y-096, 3-[6-Amino-5-(3-methoxy-phenyl)-pyridin-3-yl]-N-(2-diethylamino-ethyl)-benzamide]"
